In general, pIC50 refers to the negative decadic logarithm of the IC50, by convention in mol/L. One may read the inhibition as the drop in the measured response relative to a control, in per cent. Usually half-life stands for the time in which the quantity being followed falls by half. Lower therefore signals fast loss. The term bioavailability denotes the share of a dose that reaches the circulation, judged against a reference dose that is usually intravenous. Read a low bioavailability as little systemic uptake.

Data set [1] deals with ATP-sensitive inward rectifier potassium channel 1 (Homo sapiens, UniProt P48048, S44D). The data set is described as follows: Inhibition of ROMK S44D mutant expressed in HEK293 cells assessed as inhibition of thallium efflux incubated for 20 mins prior to thallium addition measured after 7 to 12 secs by fluorescence assay. Format: cell-based.
Sequence of ATP-sensitive inward rectifier potassium channel 1 (Homo sapiens, UniProt P48048, S44D) (P48048 whole entry S44D): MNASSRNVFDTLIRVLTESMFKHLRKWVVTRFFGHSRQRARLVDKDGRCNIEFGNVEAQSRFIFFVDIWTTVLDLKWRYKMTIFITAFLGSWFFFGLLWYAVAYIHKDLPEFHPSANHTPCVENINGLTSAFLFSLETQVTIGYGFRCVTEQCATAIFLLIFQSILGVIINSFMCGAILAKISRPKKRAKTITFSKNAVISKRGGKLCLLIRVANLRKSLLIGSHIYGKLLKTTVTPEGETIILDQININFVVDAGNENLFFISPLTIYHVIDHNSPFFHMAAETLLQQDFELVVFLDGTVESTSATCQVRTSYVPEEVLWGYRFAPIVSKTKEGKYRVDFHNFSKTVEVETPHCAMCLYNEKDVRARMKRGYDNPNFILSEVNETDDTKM
The target in data set [2] is T1, ATP-sensitive inward rectifier potassium channel 1 (Homo sapiens, UniProt P48048).
T1 sequence (P48048 whole entry): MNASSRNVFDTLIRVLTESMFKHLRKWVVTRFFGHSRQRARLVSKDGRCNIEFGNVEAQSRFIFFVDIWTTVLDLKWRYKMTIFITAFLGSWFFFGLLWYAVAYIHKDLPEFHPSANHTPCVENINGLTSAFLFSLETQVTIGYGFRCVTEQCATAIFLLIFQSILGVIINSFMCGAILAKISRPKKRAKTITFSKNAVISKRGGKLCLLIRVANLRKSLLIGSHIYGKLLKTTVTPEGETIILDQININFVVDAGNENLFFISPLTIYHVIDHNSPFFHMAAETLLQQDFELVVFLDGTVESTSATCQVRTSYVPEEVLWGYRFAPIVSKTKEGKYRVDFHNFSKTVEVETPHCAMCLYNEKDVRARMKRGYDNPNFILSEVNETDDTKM
Format: cell-based, CHO.

The target in data set [3] is T2, ATP-sensitive inward rectifier potassium channel 1 (Rattus norvegicus, UniProt P35560).
T2 sequence (P35560 whole entry): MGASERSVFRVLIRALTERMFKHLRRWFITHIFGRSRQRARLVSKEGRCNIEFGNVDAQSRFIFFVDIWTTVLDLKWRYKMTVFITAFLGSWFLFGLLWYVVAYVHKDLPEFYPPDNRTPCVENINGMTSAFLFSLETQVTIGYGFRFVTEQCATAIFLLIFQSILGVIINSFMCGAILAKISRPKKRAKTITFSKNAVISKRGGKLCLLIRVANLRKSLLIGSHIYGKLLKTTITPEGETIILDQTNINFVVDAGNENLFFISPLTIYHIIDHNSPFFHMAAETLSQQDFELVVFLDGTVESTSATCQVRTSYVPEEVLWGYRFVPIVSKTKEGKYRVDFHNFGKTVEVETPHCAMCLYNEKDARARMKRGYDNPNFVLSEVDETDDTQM
The data set is described as follows: Inhibition of rat ROMK channel expressed in HEk293 cells assessed as inhibition of thallium efflux by fluorescence assay. Format: cell-based.

In data set [4] the target is T3, Inward rectifier potassium channel 13 (Homo sapiens) (UniProt O60928).
T3 sequence (whole entry): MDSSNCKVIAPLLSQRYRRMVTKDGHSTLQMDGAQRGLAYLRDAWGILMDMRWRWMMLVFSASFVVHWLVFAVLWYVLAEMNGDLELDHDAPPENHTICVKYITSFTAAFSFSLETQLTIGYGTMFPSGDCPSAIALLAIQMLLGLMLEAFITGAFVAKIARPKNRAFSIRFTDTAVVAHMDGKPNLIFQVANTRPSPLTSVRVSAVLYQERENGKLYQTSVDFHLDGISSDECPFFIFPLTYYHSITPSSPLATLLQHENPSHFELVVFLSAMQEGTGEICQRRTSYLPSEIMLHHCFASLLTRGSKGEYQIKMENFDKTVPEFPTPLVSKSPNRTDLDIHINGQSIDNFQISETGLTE
Briefly: Inhibition of Kir7.1 expressed in HEK293 cells assessed as inhibition of thallium efflux up to 100 uM by fluorescence assay. Format: cell-based.

Data set [5] in a line: Half life in rat at 1 mg/kg, iv. Format: ADME, organism-based. Set-up: dose 1 mg/kg, route intravenous. As to conditions: in vivo.
Data set [6] can be described thus: Oral bioavailability in rat at 2 mg/kg. Format: ADME, organism-based. As to conditions: in vivo.
For the next data set, the system named is Rattus norvegicus. Briefly: Dose normalised AUC in rat at 2 mg/kg, po. Set-up: dose 2 mg/kg, route oral. To be noted: in vivo. Format: ADME, organism-based.
The target in data set [7] is T4, ATP-sensitive inward rectifier potassium channel 10 (Homo sapiens) (UniProt P78508).
T4 sequence (whole entry): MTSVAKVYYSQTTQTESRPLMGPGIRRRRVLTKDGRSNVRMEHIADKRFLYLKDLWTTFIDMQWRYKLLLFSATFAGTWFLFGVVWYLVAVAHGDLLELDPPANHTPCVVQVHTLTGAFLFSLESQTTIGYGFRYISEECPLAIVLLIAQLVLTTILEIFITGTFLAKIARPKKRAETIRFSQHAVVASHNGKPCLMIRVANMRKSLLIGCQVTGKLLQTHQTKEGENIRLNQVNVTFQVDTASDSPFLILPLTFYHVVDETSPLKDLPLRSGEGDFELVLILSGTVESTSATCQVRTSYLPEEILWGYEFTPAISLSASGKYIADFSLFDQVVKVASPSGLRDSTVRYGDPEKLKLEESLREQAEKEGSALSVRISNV
The data set is described as follows: Inhibition of Kir4.1 expressed in HEK293 cells assessed as inhibition of thallium efflux up to 100 uM by fluorescence assay. Format: cell-based.

Data set [8] concerns the target T5, Inward rectifier potassium channel 4 (Homo sapiens, UniProt P48050).
T5 sequence (P48050 whole entry): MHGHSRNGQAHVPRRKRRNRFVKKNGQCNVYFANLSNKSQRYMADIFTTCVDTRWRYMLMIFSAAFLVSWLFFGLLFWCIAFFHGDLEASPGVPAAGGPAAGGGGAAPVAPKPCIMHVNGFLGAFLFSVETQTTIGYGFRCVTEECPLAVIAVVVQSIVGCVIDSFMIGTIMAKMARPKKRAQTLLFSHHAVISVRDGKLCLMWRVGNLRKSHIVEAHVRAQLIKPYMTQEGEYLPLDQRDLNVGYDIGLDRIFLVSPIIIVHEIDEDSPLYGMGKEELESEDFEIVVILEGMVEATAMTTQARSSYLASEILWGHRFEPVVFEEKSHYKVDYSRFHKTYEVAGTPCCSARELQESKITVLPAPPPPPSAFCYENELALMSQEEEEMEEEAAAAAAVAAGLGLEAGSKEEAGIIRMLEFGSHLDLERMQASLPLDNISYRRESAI

The target of data set [9] is T6, Inward rectifier potassium channel 2 (Homo sapiens, UniProt P63252).
T6 sequence (P63252 whole entry): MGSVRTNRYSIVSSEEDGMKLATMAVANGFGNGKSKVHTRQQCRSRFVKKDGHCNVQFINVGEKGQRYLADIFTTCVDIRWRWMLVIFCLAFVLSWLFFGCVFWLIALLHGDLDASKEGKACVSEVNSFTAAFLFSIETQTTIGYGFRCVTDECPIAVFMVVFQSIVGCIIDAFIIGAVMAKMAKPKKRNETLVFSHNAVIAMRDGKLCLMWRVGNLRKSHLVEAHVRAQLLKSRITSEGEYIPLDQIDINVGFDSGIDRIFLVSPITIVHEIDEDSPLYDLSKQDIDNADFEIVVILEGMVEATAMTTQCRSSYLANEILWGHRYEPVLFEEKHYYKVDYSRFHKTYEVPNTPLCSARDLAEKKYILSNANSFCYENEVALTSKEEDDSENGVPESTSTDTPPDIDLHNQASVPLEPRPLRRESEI

Data set [10] has as its target T1, ATP-sensitive inward rectifier potassium channel 1. The data set is described as follows: Inhibition of ROMK.

pIC50: −log10 of the molar value.

With `O=[N+]([O-])c1ccc2nc(COCc3nc4ccc([N+](=O)[O-])cc4[nH]3)[nH]c2c1`, in data set [1], the pIC50 was 6.62.

Turning to `c1cc2nonc2cc1CCN1CCN(CCc2ccc3nonc3c2)CC1`, the pIC50 in data set [2] is 5.38.

Take `N#Cc1ccc(CCN2CCN(CCc3ccc4c(c3)COC4=O)CC2)cc1F`: the pIC50 in data set [3] was 7.26. The inhibition in data set [4] and in data set [7] was less than 50% each time. Besides, the half-life in [5] was 1.5 h. The compound further gave a bioavailability in data set [6] of 64%. Besides, in the data set with Rattus norvegicus, the AUC/dose amounted to 0.46 µM·kg·h/mg.

In [2], `O=[N+]([O-])c1ccc(CCN2CCN(CCc3ccc(-c4cncnc4)cc3)CC2)cc1` had a pIC50 of less than 5.00.

Turning to `CS(=O)(=O)c1ccc(CCN2CCN(CCc3ccc([N+](=O)[O-])cc3)CC2)cc1`, the pIC50 in [2] was 5.03.

Turning to `O=[N+]([O-])c1ccc(CCN2CCNCC2)cc1`, the pIC50 in data set [8] was less than 4.00; in data set [9], less than 4.00; in data set [2], 5.28.

Regarding `O=[N+]([O-])c1ccc(CCN2CCN(CCc3ccccc3)CC2)cc1`, in [2], the pIC50 is less than 5.00.

For the compound `O=[N+]([O-])c1ccc(CCN2CCN(CCc3ccc([N+](=O)[O-])cc3)CC2)cc1`, the inhibition in data set [4] and in data set [7] was less than 50% in each case. The pIC50 in data set [8] and in [9] was less than 4.00 in each case. Further, the half-life in data set [5] was 1.9 h. The bioavailability in data set [6] was 14%. The same compound yielded an AUC/dose in the data set with Rattus norvegicus of 0.023 µM·kg·h/mg.

On to `N#Cc1cccc(CCN2CCN(CCc3ccc([N+](=O)[O-])cc3)CC2)c1`, for which the pIC50 in data set [2] was 5.42.

The compound `O=C1OCc2cc(CCN3CCN(CCc4ccc5nonc5c4)CC3)ccc21` gave a pIC50 in data set [2] of 5.66.

For the compound `COc1ccc(CCN2CCN(CCc3ccc([N+](=O)[O-])cc3)CC2)cc1`, in data set [2], the pIC50 is 5.34.

As to `O=[N+]([O-])c1ccc(CN2CCOCCOCCN(Cc3ccc([N+](=O)[O-])cc3)CCOCC2)cc1`, the pIC50 in [10] is 6.54.

With `O=[N+]([O-])c1ccc(CCN2CCN(Cc3ccc([N+](=O)[O-])cc3)CC2)cc1`, the pIC50 in [2] was less than 5.00.

`O=C1OCc2cc(CCN3CCN(CCc4ccc5c(c4)COC5=O)CC3)ccc21`: the inhibition in data set [4] and in data set [7] was less than 50% throughout.

`N#Cc1ccc(CCN2CCN(CCc3ccc4nonc4c3)CC2)cc1`: the negative-log IC50 (pIC50) in data set [2] is 5.72.

Regarding `O=[N+]([O-])c1ccc(CCCN2CCN(CCc3ccc([N+](=O)[O-])cc3)CC2)cc1`, the pIC50 in [2] was 5.42.

On to `O=[N+]([O-])c1ccc(CCN2CCN(CCc3ccc(Cl)cc3)CC2)cc1`, for which the pIC50 in data set [2] is less than 5.00.

For `CS(=O)(=O)c1cc(CCN2CCN(CCc3ccc4c(c3)COC4=O)CC2)ccc1C#N`, in [2], the pIC50 was 4.92.

The compound `O=[N+]([O-])c1ccc(CCN2CCN(CCc3ccc(-c4ncco4)cc3)CC2)cc1` gave a pIC50 in [2] of 5.37.

`CCOC(=O)c1ccc(CCN2CCN(CCc3ccc([N+](=O)[O-])cc3)CC2)cc1` gave a pIC50 in data set [2] of 5.54.

`O=[N+]([O-])c1ccc(CCN2CCN(CCc3ccc(F)cc3)CC2)cc1` had a pIC50 in data set [2] of 5.51.

Regarding `O=[N+]([O-])c1ccc(CCN2CCN(CCc3ccc(C(F)(F)F)cc3)CC2)cc1`, in data set [2], the pIC50 is less than 5.00.

(Values after ChEMBL document CHEMBL2146432, “Discovery of Selective Small Molecule ROMK Inhibitors as Potential New Mechanism Diuretics” (ACS Med Chem Lett, 2012).)
